According to patent publication US20210163412A1, “NOVEL SULFONEUREA COMPOUNDS” (Inflazome Limited, priority 2018, published 2021):

How the values were obtained:
NLRP3 [1] = molecular target: T1, NLRP3 (Homo sapiens, UniProt Q96P20); assay: THP-1 cells pyroptosis assay; assay type: cell-based; parameters: Seed THP-1 cells (25,000 cells/well) containing 1.0 μg/ml LPS; host or cells: THP-1 cells; settings: LPS 1 μg/ml, nigericin 5 μM, resazurin readout
Experimental: The cells were routinely passaged and grown to confluency (˜10^6 cells/ml). On the day of the experiment, THP-1 cells were harvested and resuspended into RPMI medium (without FBS). The cells were then counted and viability (>90%) checked by Trypan blue (Sigma #T8154). […] To this diluted cell solution was added LPS (Sigma #L4524) to give a 1 μg/ml Final Assay Concentration (FAC). 40 μl of the final preparation was aliquoted into each well of a 96-well plate. The plate thus prepared was used for compound screening.
The following method step-by-step assay was followed for compound screening. • 1. […] Incubate for 3 hrs at 37° C., 5% CO2 • 4. Add 5 μl nigericin (Sigma #N7143) (FAC 5 μM) to all wells • 5. Incubate for 1 hr at 37° C., 5% CO2 • 6. At the end of the incubation period, spin plates at 300×g for 3 mins and remove supernatant • 7. Then add 50 μl of resazurin (Sigma #R7017) (FAC 100 μM resazurin in RPMI medium without FBS) and incubate plates for a further 1-2 hrs at 37° C. and 5% CO2 • 8. […] IC50 data is fitted to a non-linear regression equation (log inhibitor vs response-variable slope 4-parameters)

NLRP3 [2] = molecular target: T1, NLRP3; assay: Human whole blood IL-1β release assay; assay type: cell-based; parameters: Human whole blood in Li-heparin tubes was obtained from healthy donors; from tissue; host or cells: human whole blood from healthy donors; settings: LPS 1 μg/ml, nigericin, IL-1β in supernatant (AlphaLisa), read-out: HWB IC50
Experimental: For systemic delivery, the ability to inhibit NLRP3 when the compounds are present within the bloodstream is of great importance. For this reason, the NLRP3 inhibitory activity of a number of compounds in human whole blood was investigated in accordance with the following protocol.
Human whole blood in Li-heparin tubes was obtained from healthy donors from a volunteer donor panel. • 1. […] Incubate for 3 hrs at 37° C., 5% CO2 • 4. Add 1 μl nigericin (Sigma #N7143) ([…]) to all wells • 5. Incubate for 1 hr at 37° C., 5% CO2 • 6. At the end of the incubation period, spin plates at 300×g for 5 mins to pellet cells and remove 20 μl of supernatant and add to 96-well v-bottom plates for IL-1β analysis (note: these plates containing the supernatants can be stored at −80° C. to be analysed at a later date) • 7. IL-1β was measured according to the manufacturer protocol (Perkin Elmer-AlphaLisa IL-1 Kit AL220F-5000) • 8. IC50 data is fitted to a non-linear regression equation (log inhibitor vs response-variable slope 4-parameters)

T1 sequence (Q96P20 whole entry): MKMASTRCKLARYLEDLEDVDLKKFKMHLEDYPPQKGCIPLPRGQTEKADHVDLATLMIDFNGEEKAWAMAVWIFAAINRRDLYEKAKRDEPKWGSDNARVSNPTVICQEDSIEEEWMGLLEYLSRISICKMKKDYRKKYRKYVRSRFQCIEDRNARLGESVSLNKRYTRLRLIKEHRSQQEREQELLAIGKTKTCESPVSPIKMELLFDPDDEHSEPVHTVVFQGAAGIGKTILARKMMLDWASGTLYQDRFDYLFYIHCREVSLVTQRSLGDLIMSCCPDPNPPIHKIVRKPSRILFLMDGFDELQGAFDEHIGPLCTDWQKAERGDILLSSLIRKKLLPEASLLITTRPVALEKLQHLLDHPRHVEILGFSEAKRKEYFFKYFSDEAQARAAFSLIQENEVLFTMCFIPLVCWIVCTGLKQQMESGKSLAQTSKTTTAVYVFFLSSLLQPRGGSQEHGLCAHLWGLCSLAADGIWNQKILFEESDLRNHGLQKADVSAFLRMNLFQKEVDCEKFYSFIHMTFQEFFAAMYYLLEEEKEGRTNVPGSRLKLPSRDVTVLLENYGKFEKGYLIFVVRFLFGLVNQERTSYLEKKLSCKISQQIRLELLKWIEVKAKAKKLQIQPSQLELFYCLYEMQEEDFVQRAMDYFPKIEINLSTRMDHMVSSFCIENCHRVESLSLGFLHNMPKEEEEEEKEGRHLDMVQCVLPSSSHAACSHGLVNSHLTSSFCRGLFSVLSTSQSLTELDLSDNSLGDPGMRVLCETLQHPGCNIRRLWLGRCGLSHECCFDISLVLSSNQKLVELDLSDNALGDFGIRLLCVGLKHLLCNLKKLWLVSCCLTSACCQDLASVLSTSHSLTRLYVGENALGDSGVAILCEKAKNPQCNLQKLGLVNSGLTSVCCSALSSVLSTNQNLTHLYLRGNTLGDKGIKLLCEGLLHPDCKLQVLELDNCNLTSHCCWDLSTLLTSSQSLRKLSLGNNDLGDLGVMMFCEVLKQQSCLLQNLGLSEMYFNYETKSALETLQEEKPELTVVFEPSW

Compound	IC50 (NLRP3 [1])	IC50 (NLRP3 [2])
CC1CC(Oc2cc(-c3ccc4c(c3NC(=O)NS(C)(=O)=O)CCC4)ccn2)CCO1 (stereo not drawn) [Example 8]	250 to 500 nM	1000 to 2000 nM
C=CCN1CCC(Oc2cc(-c3ccc4c(c3NC(=O)NS(=O)(=O)CC=C)CCC4)ccn2)CC1 [Example 59, N-((5-(2-((1-Allylpiperidin-4-yl)oxy)pyridin-4-yl)-2,3-dihydro-1H-inden-4-yl)carbamoyl)prop-2-ene-1-sulfonamide]	≤ 250 nM	1000 to 2000 nM
CC(C)n1ccc(S(=O)(=O)NC(=O)Nc2c(-c3ccnc(Oc4ccccc4)c3)ccc3c2CCC3)n1 [Example 77]	≤ 250 nM	5000 to 10000 nM
CS(=O)(=O)NC(=O)Nc1c(-c2ccnc(OC3CCOCC3)c2)ccc2c1CCC2 [Example 33]	250 to 500 nM	1000 to 2000 nM
O=C(Nc1c(-c2ccnc(OC3CC3)c2)ccc2c1CCC2)NS(=O)(=O)c1ccn(C2CC2)n1 [Example 72]	≤ 250 nM	1000 to 2000 nM
CN(C)C1CCC(Oc2cc(-c3ccc4c(c3NC(=O)NS(C)(=O)=O)CCC4)ccn2)CC1 (stereo not drawn) [Example 29]	≤ 250 nM	≤ 250 nM
O=C(Nc1c(-c2ccnc(OC3CC3)c2)ccc2c1CCO2)NS(=O)(=O)c1ccn(C2CC2)n1 [Example 71]	≤ 250 nM	500 to 1000 nM
O=C(Nc1c(-c2ccnc(OC3CC3)c2)ccc2c1CCO2)NS(=O)(=O)c1ccn(C2CCC2)n1 [Example 67]	≤ 250 nM	500 to 1000 nM
CN1CCC(Oc2cc(-c3ccc4c(c3NC(=O)NS(C)(=O)=O)CCC4)ccn2)CC1 [Example 35]	≤ 250 nM	≤ 250 nM
CS(=O)(=O)NC(=O)Nc1c(-c2ccnc(OC3CCN(C4CC4)CC3)c2)ccc2c1CCC2 [Example 22]	≤ 250 nM	2000 to 5000 nM
Cc1cc2c(c(NC(=O)NS(C)(=O)=O)c1-c1ccnc(O[C@H]3CC[C@H](N(C)C)CC3)c1)CCC2 [Example 46]	≤ 250 nM	≤ 250 nM
CO[C@H]1CC[C@@H](Oc2cc(-c3ccc4c(c3NC(=O)NS(C)(=O)=O)CCC4)ccn2)CC1 [Example 1, N-((5-(2-(((1s,4s)-4-Methoxycyclohexyl)oxy)pyridin-4-yl)-2,3-dihydro-1H-inden-4-yl)carbamoyl)methanesulfonamide]	≤ 250 nM	1000 to 2000 nM
CN1CCC(Oc2cc(-c3cc(F)cc(C4CCCC4)c3NC(=O)NS(C)(=O)=O)ccn2)CC1 [Example 41]	≤ 250 nM	1000 to 2000 nM
CN1CCC(COc2cc(-c3ccc4c(c3NC(=O)NS(C)(=O)=O)CCC4)ccn2)CC1 [Example 27]	1000 to 2000 nM	500 to 1000 nM
Cc1cc2c(c(NC(=O)NS(C)(=N)=O)c1-c1ccnc(OC3CCN(C)CC3)c1)CCC2 (stereo not drawn) [Example 80, N-((6-Methyl-5-(2-((1-methylpiperidin-4-yl)oxy)pyridin-4-yl)-2,3-dihydro-1H-inden-4-yl)carbamoyl)methanesulfonimidamide]	≤ 250 nM	500 to 1000 nM
CO[C@H]1CC[C@H](Oc2cc(-c3c(C)cc4c(c3NC(=O)NS(C)(=O)=O)CCC4)ccn2)CC1 [Example 54]	≤ 250 nM	500 to 1000 nM
COc1cc(-c2cc(F)cc(C(C)C)c2NC(=O)NS(=O)(=O)c2ccn(C(C)C)n2)cc(C)n1 [comp ex 2, reference compound]	2000 to 5000 nM	
CN1CCC(Oc2cc(-c3cc(F)cc(C4CCCCC4)c3NC(=O)NS(C)(=O)=O)ccn2)CC1 [Example 39]	≤ 250 nM	1000 to 2000 nM
Cc1cc2c(c(NC(=O)NS(=N)(=O)c3ccccc3)c1-c1ccnc(OC3CCN(C)CC3)c1)CCC2 (stereo not drawn) [Example 79, N-((6-Methyl-5-(2-((1-methylpiperidin-4-yl)oxy)pyridin-4-yl)-2,3-dihydro-1H-inden-4-yl)carbamoyl)benzenesulfonimidamide]	≤ 250 nM	1000 to 2000 nM
CC(C)c1cc(F)cc(-c2ccnc(OC3CCN(C)CC3)c2)c1NC(=O)NS(C)(=O)=O [Example 43]	500 to 1000 nM	≤ 250 nM

Compound	IC50 (NLRP3 [1])	IC50 (NLRP3 [2])
CC(C)n1ccc(S(=O)(=O)NC(=O)Nc2c(-c3ccnc(C4CC4)c3)ccc3c2CCC3)n1 [Example 69]	≤ 250 nM	500 to 1000 nM
CC(C)n1ccc(S(=O)(=O)NC(=O)Nc2c(-c3ccnc(OC4CCN(C)CC4)c3)ccc3c2CCC3)n1 [Example 68, i-Isopropyl-N-((5-(2-((1-methylpiperidin-4-yl)oxy)pyridin-4-yl)-2,3-dihydro-1H-inden-4-yl)carbamoyl)-1H-pyrazole-3-sulfonamide]	≤ 250 nM	250 to 500 nM
CC(C)c1cc(F)cc(-c2ccnc(N(C)C)c2)c1NC(=O)NS(=O)(=O)c1ccn(C(C)C)n1 [comp ex 3, reference compound]	2000 to 5000 nM	
CC(C)n1ccc(S(=O)(=O)NC(=O)Nc2c(-c3ccnc(OC4CCC4)c3)ccc3c2CCC3)n1 [Example 75]	≤ 250 nM	1000 to 2000 nM
CC(C)n1ccc(S(=O)(=O)NC(=O)Nc2c(-c3ccnc(OC4CCOC4)c3)ccc3c2CCC3)n1 (stereo not drawn) [Example 70]	≤ 250 nM	500 to 1000 nM
CC(C)n1ccc(S(=O)(=O)NC(=O)Nc2c(-c3ccnc(OC4CCN(C)C4)c3)ccc3c2CCC3)n1 (stereo not drawn) [Example 76]	500 to 1000 nM	
CC(C)n1ccc(S(=O)(=O)NC(=O)Nc2c(-c3ccnc(OC4CCCOC4)c3)ccc3c2CCC3)n1 (stereo not drawn) [Example 74]	≤ 250 nM	1000 to 2000 nM
Cc1cc2c(c(NC(=O)NS(C)(=O)=O)c1-c1ccnc(OC3CCOC3)c1)CCC2 (stereo not drawn) [Example 53]	≤ 250 nM	250 to 500 nM
CN1CCC(Oc2cc(-c3ccc4c(c3NC(=O)N=S(N)(=O)c3ccccc3)CCC4)ccn2)CC1 (stereo not drawn) [Example 78, N′-((5-(2-((1-Methylpiperidin-4-yl)oxy)pyridin-4-yl)-2,3-dihydro-1H-inden-4-yl)carbamoyl)benzenesulfonimidamide]	≤ 250 nM	2000 to 5000 nM
CO[C@H]1CC[C@@H](Oc2cc(-c3c(C)cc4c(c3NC(=O)NS(C)(=O)=O)CCC4)ccn2)CC1 [Example 55]	≤ 250 nM	500 to 1000 nM
CC(C)(CN1CCC1)n1ccc(S(=O)(=O)NC(=O)Nc2c(-c3ccnc(OC4CC4)c3)ccc3c2CCC3)n1 [Example 65]	≤ 250 nM	250 to 500 nM
Cc1cc2c(c(NC(=O)NS(C)(=O)=O)c1-c1ccnc(OCC3CCCN(C)C3)c1)CCC2 (stereo not drawn) [Example 47]	≤ 250 nM	≤ 250 nM
CC(C)n1ccc(S(=O)(=O)NC(=O)Nc2c(-c3ccnc(OC4CCOCC4)c3)ccc3c2CCC3)n1 [Example 73]	≤ 250 nM	500 to 1000 nM
CS(=O)(=O)NC(=O)Nc1c(-c2ccnc(OC3CCN(Cc4ccccc4)CC3)c2)ccc2c1CCC2 [Example 19]	≤ 250 nM	1000 to 2000 nM
CN(C)CC(C)(C)n1ccc(S(=O)(=O)NC(=O)Nc2c(-c3ccnc(OC4CC4)c3)ccc3c2CCC3)n1 [Example 66]	≤ 250 nM	250 to 500 nM
CN1CCC(Oc2cc(-c3cc(F)cc(-c4ccccc4)c3NC(=O)NS(C)(=O)=O)ccn2)CC1 [Example 42]	1000 to 2000 nM	1000 to 2000 nM
Cc1c(-c2ccc3c(c2NC(=O)NS(C)(=O)=O)CCC3)ccnc1OC1CCN(C)CC1 [Example 15]	250 to 500 nM	250 to 500 nM
CN(C)CC(C)(C)n1ccc(S(=O)(=O)NC(=O)Nc2c(-c3ccnc(OC4CC4)c3)ccc3c2CCO3)n1 [Example 64, N-((5-(2-Cyclopropoxypyridin-4-yl)-2,3-dihydrobenzofuran-4-yl)carbamoyl)-1-(1-(dimethylamino)-2-methylpropan-2-yl)-1H-pyrazole-3-sulfonamide]	≤ 250 nM	250 to 500 nM
CS(=O)(=O)NC(=O)Nc1c(-c2ccnc(O[C@H]3CC[C@@](C)(O)CC3)c2)ccc2c1CCC2 [Example 4]	≤ 250 nM	250 to 500 nM
